# Reference: PMC11292009, “Mapping protein binding sites by photoreactive fragment pharmacophores” (Communications Chemistry, 2024)
# What was measured:
# Format in all cases: binding
# [1] = tested on: carbonic anhydrase II (CA); assay: Intact protein MS photoaffinity labeling screen, carbonic anhydrase; conditions: intact protein MS after 10 min irradiation
# Summary of the method: (§1)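 Read-out: intact protein MS taken straight from the plate, with successful labeling seen as added mass on the protein and expressed as labeling %. Beforehand, every fragment sat alone in a well with the protein for 15 min so non-covalent interactions could form.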
# BRD4-BD1 = tested on: T1, BRD4-BD1; assay: Intact MS photoaffinity labeling screen, BRD4-BD1 (302 nm, LCMS-TOF); conditions: for MS labeling percentage, BRD4: BRD4-BD1, 302 nm 10 min
# T1 construct: screened the PhP library against the first bromodomain of BRD4 (BRD4-BD1); purchased GSK/GenScript
# Summary of the method: (§2)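 Labeling detected as mass additions in deconvoluted intact-protein LCMS-TOF spectra. Protein at 1 μM in PBS was first mixed with one fragment per well on ice for 15 min, followed by 10 min UV exposure at 302 nm.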
# KRas^G12D = tested on: T2, KRas^G12D; assay: Intact MS photoaffinity labeling screen, KRas G12D (302 nm, LCMS-TOF); conditions: for MS labeling percentage, KRas: KRas G12D, 302 nm 10 min
# T2 construct: purchased GSK/GenScript
# Summary of the method: as §2
# lysozyme (Lyo) = assay: Intact protein MS photoaffinity labeling screen, lysozyme; conditions: intact protein MS after 10 min irradiation
# Summary of the method: as §1
# myoglobin (Myo) = assay: Intact protein MS photoaffinity labeling screen, myoglobin; conditions: intact protein MS after 10 min irradiation
# Summary of the method: as §1
# STAT5B-NTD [2] = tested on: T3, STAT5B-NTD; assay: Intact MS photoaffinity labeling screen, STAT5B-NTD (365 nm, UHPLC-MS); conditions: for MS labeling percentage, STAT5B: STAT5B-NTD, 365 nm 10 min, no photocatalyst;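 as to MS labeling percentage, STAT5B: 0.17 µL of 100 mM DMSO fragment stock added to the protein sample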
# T3 construct: His-SUMO (N, cleaved yes); made in house; host or cells: E. coli BL21 RILP
# Summary of the method: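 UV irradiation at 365 nm for 10 min at 4 °C. Labeling read by intact-protein UHPLC-MS, positive ion mode, m/z 100–2000.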
# STAT5B-NTD [3] = tested on: T3, STAT5B-NTD; assay: Intact MS labeling screen, STAT5B-NTD conjugated with photocatalyst Ir-G2-PEG3-COOH (450 nm); conditions: 450 nm 10 min;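 also: 0.14 µL of 100 mM DMSO fragment stock added to the conjugate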
# Summary of the method: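 Ir-G2-PEG3-COOH photocatalyst (10 eq) activated 30 min with EDC/NHS/BOP, then conjugated to STAT5B-NTD (7 µM) overnight at RT or 1 h at 37 °C in dark. PhP added, 1 h dark, then 450 nm irradiation 10 min at 4 °C; labeling read by intact LC-MS, positive ion mode, m/z 100–2000.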
# [4] = hit flag 1/0, sheet PhP, photoaffinity labeling screen
# [5] = sheet PhP, experimental hit status flag given as 0 or 1
SMILES,"MS labeling percentage, CA [1]","MS labeling percentage, BRD4 (BRD4-BD1)",BRD4-BD1 (experimental hit status) (BRD4-BD1; [4]),"MS labeling percentage, KRas (KRas^G12D)",KRAS-G12D (experimental hit status) (KRas^G12D; [4]),"MS labeling percentage, Lyo (lysozyme (Lyo))","MS labeling percentage, Myo (myoglobin (Myo))","MS labeling percentage, STAT5B (STAT5B-NTD [2])",STAT5B-NTD (experimental hit status) (STAT5B-NTD [2]; [4]),"MS labeling percentage, STAT5B+photocat (STAT5B-NTD [3])",BRD4-BD1 (experimental hit status) (BRD4-BD1; [5]),KRAS-G12D (experimental hit status) (KRas^G12D; [5]),STAT5B-NTD (experimental hit status) (STAT5B-NTD [2]; [5])
"CC(C)CN1CCOC(CNC(=O)CCC2(C)N=N2)C1 (centres unmarked) [PhP046, CC(C)CN1CCOC(C1)CNC(=O)CCC2(C)N=N2]",0.2%,0.1%,0,0.2%,0,0%,0.3%,1%,0,0.7%,,,
"CC1(CCC(=O)NC2CCc3nccn3C2)N=N1 (centres unmarked) [PhP047, N1=NC1(C)CCC(=O)NC(CC2)Cn(c23)ccn3]",0.6%,0.5%,0,0.1%,0,0%,0%,0%,0,2.1%,,,
"CC1(CCC(=O)Nc2sc3c(c2C(N)=O)CCC(C(C)(C)C)C3)N=N1 (centres unmarked) [PhP049, CC(C)(C)C(CC1)Cc(c12)sc(c2C(=O)N)NC(=O)CCC3(C)N=N3]",0.2%,0%,0,0.1%,0,0%,0.1%,1%,0,2%,,,
"CC1(CCC(=O)NCCCn2ccnc2)N=N1 [PhP050, N1=NC1(C)CCC(=O)NCCCn2ccnc2]",0.3%,0.4%,0,0.6%,0,0%,0.2%,1%,0,0.4%,,,
"CC1(CCC(=O)NCCSCc2ccccc2)N=N1 [PhP051, N1=NC1(C)CCC(=O)NCCSCc2ccccc2]",1%,0.2%,0,0%,0,0%,0.1%,0%,0,1%,,,
"CC1(CCC(=O)NCc2ccc(-c3cncnc3)cc2)N=N1 [PhP052, N1=NC1(C)CCC(=O)NCc2ccc(cc2)-c3cncnc3]",1.2%,1.5%,0,1.3%,0,0%,1.3%,1%,0,11.4%,,,
"CC1(CCC(=O)Nc2ccc(N3CCCCC3)cc2C(N)=O)N=N1 [PhP054, N1=NC1(C)CCC(=O)Nc2ccc(cc2C(=O)N)N3CCCCC3]",0%,0.6%,0,0%,0,0%,0%,2.9%,0,9.8%,,,
"CN(C)Cc1nc2ccc(NC(=O)CCC3(C)N=N3)cc2o1 [PhP055, CN(C)Cc(n1)oc(c12)cc(cc2)NC(=O)CCC3(C)N=N3]",0%,0.7%,0,0.3%,0,0%,0%,0%,0,0.8%,,,
"CC1(CCC(=O)NCCCN2CCN(C(=O)OC(C)(C)C)CC2)N=N1 [PhP056, CC(C)(C)OC(=O)N1CCN(CC1)CCCNC(=O)CCC2(C)N=N2]",0.3%,0.2%,0,0%,0,0%,0%,0%,0,1.2%,,,
"CC1(CCC(=O)NCc2c(O)ccc3ccccc23)N=N1 [PhP057, N1=NC1(C)CCC(=O)NCc(c(O)cc2)c(c23)cccc3]",0.4%,1.6%,0,1.1%,0,2.2%,0.7%,0%,0,3.4%,,,
"CC1(CCC(=O)N[C@@H](Cc2ccc(O)cc2)C(N)=O)N=N1 [PhP058, N1=NC1(C)CCC(=O)N[C@H](C(=O)N)Cc2ccc(O)cc2]",0%,0.4%,,0%,,1.2%,0.1%,1%,,0.5%,0,0,0
"CC1(CCC(=O)NCc2cccc(C(N)=O)c2)N=N1 [PhP059, N1=NC1(C)CCC(=O)NCc2cccc(c2)C(=O)N]",0.6%,0.7%,,0.8%,,0%,0.7%,1%,,0.3%,0,0,0
"Cc1n[nH]c(C)c1CCNC(=O)CCC1(C)N=N1 [PhP061, Cc1n[nH]c(C)c1CCNC(=O)CCC2(C)N=N2]",0.2%,0.2%,,0.1%,,0%,0.2%,1%,,0%,0,0,0
"COc1ccc(OC)c(C(C)NC(=O)CCC2(C)N=N2)c1 (centres unmarked) [PhP062, COc1ccc(OC)c(c1)C(C)NC(=O)CCC2(C)N=N2]",2.3%,7.9%,,63.2%,,1%,1.1%,2%,,1.9%,0,0,0
